This note sets out measurements from ChEMBL document CHEMBL1147477, “(4-Carboxamido)phenylalanine is a surrogate for tyrosine in opioid receptor peptide ligands” (Bioorg Med Chem Lett, 2004).

Holding throughout (type): toxicity, cell-based
Data set [1] can be described thus: Lethal dose against human […] HL- 60 cell line. The conditions noted are these: HL-60 cells, read-out: LD50 (the source's name).
The nature of data set [2]: Lethal dose against NUGC-3 human stomach cancer cell line. Particulars: NUGC-3 cells, read-out: LD50 (the source's name).
Data set [3] in a line: Lethal dose against HeLa human cervix cancer cell line. Particulars: HeLa cells, read-out: LD50 (the source's name).
Data set [4] is described as follows: Lethal dose against HL-60 human peripheral blood cancer cell line. Particulars: HL-60 cells, read-out: LD50 (the source's name).

Take `CC(C)=C1Oc2c(ccc3cc(C)ncc23)C1=O`: in data set [1], the CC50 worked out at 39 µM.
On to `CC(C)=C1Oc2c(ccc3c2C(O)OC(C)C3)C1=O` (centres undefined), for which the results for the CC50 in data set [2], in data set [3] and in data set [4] were 49 µM, 47 µM and 39 µM, respectively.
